Experimental findings from patent EP4563146A1 (IRBM S.P.A., priority 2023, dated 2025) are described below.

pEC50: −log10 of the molar value. Like-named read-outs stand apart in the source and are kept apart here. Some results are limits rather than exact numbers.

This experiment relates to ZIKV replicon. In words: ZIKV replication inhibition assay (NanoLuc replicon in Vero cells). To be noted: Zika virus, Vero, 72 h. Background: A replicon is a self-replicating genome or part of one, used to study replication in cells.
The mark [1] stands for this setting: read-out: ZIKA Cell_Nanoluc, Vero cells with stable ZIKV replicon, 72 h, Nano-Glo readout.

For `C=CCOC(=O)C[n+]1cc([N-]C(=O)Nc2cc(NC(=O)Cc3ccccc3)cc(C(F)(F)F)c2)on1` [Example 97, (3-(2-(Allyloxy)-2-oxoethyl)-1,2,3-oxadiazol-3-ium-5-yl)((3-(2-phenylacetamido)-5-(trifluoromethyl)phenyl)carbamoyl)amide], the pEC50 under setting [1] is under 4.70. The same measure, in the same setting: the value for `NC(=O)c1ccc(C[n+]2cc([N-]C(=O)Nc3cc(NC(=O)Cc4ccccc4)cc(C(F)(F)F)c3)on2)cc1` [Example 104, (3-(4-Carbamoylbenzyl)-1,2,3-oxadiazol-3-ium-5-yl)((3-(2-phenylacetamido)-5-(trifluoromethyl)phenyl)carbamoyl)amide] was 4.70 to 6.00.

As to `CN(CC(F)(F)F)[C@H]1CC[C@H](C[n+]2cc([N-]C(=O)Nc3cc(N4CC[C@H](c5ccccc5)C4=O)cc(C(F)(F)F)c3)on2)CC1` [Example 146, (3-(((1R,4R)-4-(Methyl(2,2,2-trifluoroethyl)-amino)cyclohexyl)methyl)-1,2,3-oxadiazol-3-ium-5-yl)((3-((R)-2-oxo-3-phenylpyrrolidin-1-yl)-5-(trifluoromethyl)phenyl)carbamoyl)amide], the pEC50 (read-out: ZIKA Cell_Nanoluc) was 6.00 to 7.00. As for `COc1ncc(-c2ccc(C[n+]3cc([N-]C(=O)Nc4cc(NS(=O)(=O)Cc5ccccc5)cc(C(F)(F)F)c4)on3)cc2)c(C)n1` [Example 10, (3-(4-(2-Methoxy-4-methylpyrimidin-5-yl)benzyl)-1,2,3-oxadiazol-3-ium-5-yl)((3-((phenylmethyl)sulfonamido)-5-(trifluoromethyl)phenyl)carbamoyl)amide], the pEC50 under setting [1] was 6.00 to 7.00. In the case of `O=C([N-]c1c[n+](Cc2ccccn2)no1)Nc1cc(NC(=O)C2(Oc3ccc(Cl)cc3)COC2)cc(C(F)(F)F)c1` [Example 83], the pEC50 (read-out: ZIKA Cell_Nanoluc) is 4.70 to 6.00. Consider `O=C([N-]c1c[n+](Cc2ccccn2)no1)Nc1cc(NC(=O)c2cc3n(n2)CCS(=O)(=O)C3)cc(C(F)(F)F)c1` [Example 64], for which the pEC50 (read-out: ZIKA Cell_Nanoluc) is under 4.70.

As for `O=C([N-]c1c[n+](Cc2ccccn2)no1)Nc1cc(NC(=O)C(F)(F)CN2CCCC2)cc(C(F)(F)F)c1` [Example 76], under “read-out: ZIKA Cell_Nanoluc”, the pEC50 is under 4.70. With `O=C([N-]c1c[n+](Cc2ccccn2)no1)Nc1cc(NC(=O)c2ccc3[nH]cnc3c2)cc(C(F)(F)F)c1` [Example 29, ((3-(1H Benzo[d]imidazole-5-carboxamido)-5-(trifluoromethyl)phenyl)-carbamoyl)(3-(pyridin-2-ylmethyl)-1,2,3-oxadiazol-3-ium-5-yl)amide], the pEC50 under setting [1] is 4.70 to 6.00. Turning to `O=C(Cc1ccccc1)Nc1cc(NC(=O)[N-]c2c[n+](CC3CCNCC3)no2)cc(C(F)(F)F)c1` [Example 120], the pEC50 (read-out: ZIKA Cell_Nanoluc) is under 4.70. On to `O=C(Cc1cc(NC(=O)[N-]c2c[n+](Cc3ccccn3)no2)cc(C(F)(F)F)c1)NCc1ccccc1` [Example 90, ((3-(2-(Benzylamino)-2-oxoethyl)-5-(trifluoromethyl)phenyl)carbamoyl)(3-(pyridin-2-ylmethyl)-1,2,3-oxadiazol-3-ium-5-yl)amide], for which the pEC50 under setting [1] is 4.70 to 6.00. For the compound `O=C([N-]c1c[n+](Cc2ccccn2)no1)Nc1cc(NC(=O)c2cccc(Oc3ccccc3)c2)cc(C(F)(F)F)c1` [Example 31], under “read-out: ZIKA Cell_Nanoluc”, the pEC50 is 4.70 to 6.00. As for `O=C([N-]c1c[n+](Cc2ccccn2)no1)Nc1cc(NC(=O)C23CC(C(=O)O)(C2)C3)cc(C(F)(F)F)c1` [Example 52, ((3-(3-Carboxybicyclo[1.1.1]pentane-1-carboxamido)-5-(trifluoromethyl)phenyl)-carbamoyl)(3-(pyridin-2-ylmethyl)-1,2,3-oxadiazol-3-ium-5-yl)amide], the pEC50 under setting [1] is 4.70 to 6.00. The same measure, in the same setting: to `NCc1ccc(C[n+]2cc([N-]C(=O)Nc3cc(NC(=O)Cc4ccccc4)cc(C(F)(F)F)c3)on2)cc1` [Example 56, (3-(4-(Aminomethyl)benzyl)-1,2,3-oxadiazol-3-ium-5-yl)((3-(2-phenylacetamido)-5-(trifluoromethyl)phenyl)carbamoyl)amide] belongs 4.70 to 6.00; to `CN1CCCC(C[n+]2cc([N-]C(=O)Nc3cc(NC(=O)Cc4ccccc4)cc(C(F)(F)F)c3)on2)C1` (centres unmarked) [Example 117, (3-((1-Methylpiperidin-3-yl)methyl)-1,2,3-oxadiazol-3-ium-5-yl)((3-(2-phenylacetamido)-5-(trifluoromethyl)phenyl)carbamoyl)amide], 4.70 to 6.00; to `O=C(Cc1ccccc1)Nc1cc(NC(=O)[N-]c2c[n+](Cc3ccc(CO)cc3)no2)cc(C(F)(F)F)c1` [Example 102, (3-(4-(Hydroxymethyl)benzyl)-1,2,3-oxadiazol-3-ium-5-yl)((3-(2-phenylacetamido)-5-(trifluoromethyl)phenyl)carbamoyl)amide], 4.70 to 6.00. Same read-out and setting: the value for `O=C([N-]c1c[n+](Cc2ccccn2)no1)Nc1cc(NC(=O)C2CCCc3cn[nH]c32)cc(C(F)(F)F)c1` (centres unmarked) [Example 38, (3-(Pyridin-2-ylmethyl)-1,2,3-oxadiazol-3-ium-5-yl)((3-(4,5,6,7-tetrahydro-1H-indazole-7-carboxamido)-5-(trifluoromethyl)phenyl)carbamoyl)amide] was 4.70 to 6.00. For the compound `N#Cc1ccn(C2(C(=O)Nc3cc(NC(=O)[N-]c4c[n+](Cc5ccccn5)no4)cc(C(F)(F)F)c3)CC2)n1` [Example 71], the pEC50 (read-out: ZIKA Cell_Nanoluc) is 4.70 to 6.00. Take `O=C(CC1CC2CC1C2)Nc1cc(NC(=O)[N-]c2c[n+](Cc3ccccn3)no2)cc(C(F)(F)F)c1` (centres unmarked) [Example 63, ((3-(2-(Bicyclo[2.1.1]hexan-2-yl)acetamido)-5-(trifluoromethyl)phenyl)carbamoyl)(3-(pyridin-2-ylmethyl)-1,2,3-oxadiazol-3-ium-5-yl)amide]: the pEC50 under setting [1] was 4.70 to 6.00.

As to `Cc1cccc2c1OCC2C(=O)Nc1cc(NC(=O)[N-]c2c[n+](Cc3ccccn3)no2)cc(C(F)(F)F)c1` (centres unmarked) [Example 67], the pEC50 (read-out: ZIKA Cell_Nanoluc) is 4.70 to 6.00.

Take `O=C(Cc1ccccc1)Nc1cc(NC(=O)[N-]c2c[n+](CC3CCCCN3)no2)cc(C(F)(F)F)c1` (centres unmarked) [Example 125, ((3-(2-Phenylacetamido)-5-(trifluoromethyl)-phenyl)carbamoyl)(3-(piperidin-2-ylmethyl)-1,2,3-oxadiazol-3-ium-5-yl)amide]: the pEC50 under setting [1] is 4.70 to 6.00. `N[C@H]1CC[C@H](C[n+]2cc([N-]C(=O)Nc3cc(N4CCC(c5ccccc5)C4=O)cc(C(F)(F)F)c3)on2)CC1` (stereo partly drawn) [Example 132, (3-(((1R,4R)-4-Aminocyclohexyl)methyl)-1,2,3-oxadiazol-3-ium-5-yl)((3-(2-oxo-3-phenylpyrrolidin-1-yl)-5-(trifluoromethyl)-phenyl)carbamoyl)amide]: the pEC50 (read-out: ZIKA Cell_Nanoluc) was under 4.70. For `O=C(Cc1cccc2cn[nH]c12)Nc1cc(NC(=O)[N-]c2c[n+](Cc3ccccn3)no2)cc(C(F)(F)F)c1` [Example 126, ((3-(2-(1H-Indazol-7-yl)acetamido)-5-(trifluoromethyl)phenyl)carbamoyl)(3-(pyridin-2-ylmethyl)-1,2,3-oxadiazol-3-ium-5-yl)amide], under setting [1], the pEC50 is under 4.70. The same measure, in the same setting: the value for `O=C(Cc1ccccc1)Nc1cc(NC(=O)[N-]c2c[n+](Cc3ccc(-c4cccc5c4CNC5)cn3)no2)cc(C(F)(F)F)c1` [Example 14, (3-((5-(Isoindolin-4-yl)pyridin-2-yl)methyl)-1,2,3-oxadiazol-3-ium-5-yl)((3-(2-phenylacetamido)-5-(trifluoromethyl)phenyl)carbamoyl)amide] was 4.70 to 6.00.
